Here are results for one compound from PMC9065200, “Engineering of donor-acceptor-donor curcumin analogues as near-infrared fluorescent probes for in vivo imaging of amyloid-β species” (Theranostics, 2022).

One experiment deals with T1, Aβ42 monomers (Homo sapiens, UniProt P05067).
T1 construct: gene APP; commercial Abeta(1-42) peptide (Nanjing Peptide Biotech), cut from APP precursor; monomer stock in hexafluoroisopropanol
Nature of the experiment: fluorescence titration, one-site binding regression. As to conditions: read-out: Aβ monomers / Kd. An excerpt:
fluorescence titration, one-site binding regression on Aβ42 monomers

The next experiment has as its target T2, Aβ42 oligomers (Homo sapiens, UniProt P05067).
T2 construct: gene APP; commercial Abeta(1-42) peptide, cut from APP precursor; soluble oligomers prepared via HFIP/water, stirred 24-48 h at ~22 °C, confirmed by TEM
The description is as above. As to conditions: read-out: Aβ oligomers / Kd. From the text: fluorescence titration, one-site binding regression on Aβ42 oligomers

T1 sequence (P05067 672-713): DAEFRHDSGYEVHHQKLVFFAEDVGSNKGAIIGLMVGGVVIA
T2 sequence (P05067 672-713): as above

For the compound `CN(C)c1ccc2cc(/C=C/C3=CC(/C=C/C=C4N(C)c5ccccc5C4(C)C)=[O+][B-](F)(F)O3)ccc2c1` [compound 7, probe 7], the values for the Kd on Aβ42 monomers and on Aβ42 oligomers were 0.0642 ± 0.00538 µM and 0.167 ± 0.0199 µM, respectively.
